Measured values as given in US11179348B2, “Combination comprising pterostilbene for the treatment of cancer” (FUNDACIÓN UNIVERSIDAD CATÓLICA DE VALENCIA SAN VICENTE …, priority 2015, dated 2021).
Marks after values point to notes of the source that are not given here.

Legend:
[1] = test system: glucocorticoid receptors (GR); assay: GR content of murine B16-F1 cells by [3H]-labeled ligand whole-cell binding assay; conditions: B16-F1-RFP tumors; day 15
Protocol: Measurement of the GR Content of Cancer Cell Lines by [^3H]-Labeled Ligand Binding Assay. The GR content was measured by a whole-cell binding assay as previously described with some modifications (Harmon, J. M. & Thompson, E. B. […] Briefly 72 h-cultured melanoma cells were harvested, as indicated above, and resuspended in culture medium to a density of 5×10^6 cells/mL. […] Cells were then washed thrice in 5.0 mL of Hank's balanced salt solution and finally suspended in 1.5 mL of the same solution. […] The presence of at least 200-fold excess of unlabeled dexamethasone effectively competed out all of the binding of [^3H]-dexamethasone to specific GR. The binding of [^3H]-dexamethasone to specific GR was represented as the difference in disintegrations per minute per cell between those samples incubated with [^3H]-dexamethasone alone and those with at least 200-fold excess of unlabeled dexamethasone. Using the specific activity of [^3H]-dexamethasone, the number of receptors per cell was calculated, assuming that each receptor binds to one dexamethasone molecule.

MeWo melanoma = assay: In vivo growth of MeWo melanoma xenografts in nu/nu mice; set-up: species or system human
BxPC-3 pancreatic cancer = assay: In vivo growth of BxPC-3 pancreatic cancer xenografts; set-up: species or system human; conditions: BxPC-3-RFP; 35 days after inoculation; Pter and/or CRC
[2] = test system: MCF-7 breast adenocarcinoma; assay: In vivo growth of MCF-7 breast cancer xenografts; set-up: species or system human; conditions: MCF-7, day 28
[3] = test system: PC-3 prostate adenocarcinoma; assay: In vivo growth of PC-3 prostate cancer xenografts; set-up: species or system human; conditions: PC-3, day 21
B16-F1 melanoma = assay: In vivo growth of murine B16-F1 melanoma; conditions: B16-F1-RFP; 15 days after inoculation; Pter 30 mg/kg i.v. every 24 h, ± CRC
Protocol: FIG. 14. In vivo effect of Pter on tumor growth (A) and on corticosterone (B) and ACTH (C) levels in plasma of murine B16-F1 melanoma-bearing mice. Pter (30 mg/kg) was administered i.v. every 24 h for a period of 15 days, starting 3 days after tumor inoculation.

[4] = test system: AtT-20 pituitary corticotroph tumor cells; assay: ACTH production and POMC expression in AtT-20 cells; assay type: cell-based, mouse; conditions: pterostilbene 15 μM
Protocol: FIG. 3. Pterostilbene bioavailability in brain and the pituitary gland, and its effect on ACTH synthesis and POMC expression in AtT-20 cells. […] (B) Effect of pterostilbene on ACTH production by AtT-20 cells in a 24 h-period (measured between 24-48 h or between 48-72 h). […] After the 30 min period, culture flasks were washed out (three times with PBS) and the medium was renewed (controls received identical treatment).
Plasma levels of ACTH (Calbiotech, Inc., Spring Valley, Calif.), corticosterone (Kamiyama Biomedical Co., Seattle, Wash.), and NORA (IBL, Hamburg, Germany) were quantified by ELISA according to the instructions of the suppliers.
RT-PCR and detection of mRNA was performed as described above. For Western blotting (see also above) POMC mouse monoclonal antibody (clone 2B2) from Origen (Rockville, Md.) were used.

[5] = test system: AsPC-1 pancreatic cancer cells; assay: Nrf2- and redox state-related enzyme activities and metabolites in AsPC-1 cells growing in vivo; set-up: species or system human; conditions: AsPC-1, in vivo +Pter, day 28
Protocol: To measure enzyme activity, isolated tumor cells were homogenized in 0.1 M phosphate buffer (pH 7.2) at 4° C. GCL and GSS activities were measured as described previously (Obrador, E. et al. Hepatology 35, 74-81 (2002)). GPX (selenium dependent) activity was measured as described by Flohé and Gunzler (Flohe, L. & Gunzler, W. A. Methods Enzymol 105, 114-121 (1984)) using H2O2 as a substrate. GSR activity was determined as described by Akerboom and Sies (Akerboom, T. P. et al, Bull Eur Physiopathol Respir 17 Suppl, 221-227 (1981)). GGT activity was measured as described previously (Obrador, E. et al. Hepatology 35, 74-81 (2002)). GST activity was measured using an assay kit from Sigma. TXNRD activity, defined by the concentration of sodium-lipoate (disulfide) reduced to dehydrolipoate (dithiol) per milligram protein, was measured as previously described (Javvadi, P. et al. Cancer Res 70, 1941-1950 (2010)). SOD activity was measured as described by Flohé and Otting (Flohe, L. & Otting, F. Methods Enzymol 105, 93-104 (1984).) using 2 mM cyanide in the assay medium to distinguish mangano-type enzyme (SOD2) from the cuprozinc type (SOD1). CAT activity was analyzed as described by Aebi (Aebi, H. Methods Enzymol 105, 121-126 (1984)). NOX activity was measured by chemiluminescence following the methodology of Wind et al. (Wind, S. et al. Comparative pharmacology of chemically distinct NADPH oxidase inhibitors. Br J Pharmacol 161, 885-898 (2010)). Protein concentration was determined with the Pierce BCA protein assay (Fisher Scientific, Waltham, Mass.). […]
GSH, GSSG, NADP^+ and NADPH Determination.
GSH and GSSG were determined, following procedures previously described (Obrador, E. et al. PLoS One 9, e96466 (2014)), by LC/MS using the same equipment described above for pterostilbene determination. Cell processing was performed according to published methodology, where rapid N-ethylmaleimide derivatization was used to prevent GSH auto-oxidation (Asensi, M. et al. Anal Biochem 217, 323-328 (1994)). NADP^+ and NADPH were quantitated using an assay kit from Sigma (St. Louis, Mo.).

A2058 melanoma cells = assay: NO production (NOx) in cultured A2058 cells isolated from treated mice; assay type: cell-based, human; conditions: 24-h cultured A2058 cells isolated from Pter-treated mice
[6] = test system: HepG2 hepatocellular carcinoma; assay: In vivo growth of HepG2 liver cancer xenografts; set-up: species or system human; conditions: HepG2, day 35

Q: With `COc1cc(/C=C/c2ccc(O)cc2)cc(OC)c1` [Pter, trans-3,5-dimethoxy-4′-hydroxystilbene] as the compound, how does the “GR number (binding sites/cell)” value [1] read?
A: Its value is 112 ± 16 10^3 GR/cell.

Q: What about the Tumor vol. (MeWo melanoma; MeWo-RFP, 35 days after inoculation, Pter 30 mg/kg i.v. every 48 h and/or CRC infusion 0.3 μg/h) of the same compound?
A: Its Tumor vol. is 167 ± 53* mm^3.

Q: What about the “inhibition of tumor growth” value (MeWo melanoma; Mewo, day 42, 30 mg Pter/kg i.v. every 48 h, vs controls) of the same compound?
A: The value was about 65%.

Q: What about the Tumor vol. (BxPC-3 pancreatic cancer) of the same compound?
A: Its Tumor vol. is 226 ± 63* mm^3.

Q: And the Tumor vol. [2]?
A: The Tumor vol. was 689 ± 153 mm^3.

Q: And the Tumor vol. [3]?
A: The Tumor vol. was 276 ± 74* mm^3.

Q: What about the Tumor vol. (B16-F1 melanoma) of the same compound?
A: The Tumor vol. was 790 ± 156* mm^3.

Q: What about the “ACTH production by AtT-20 cells” value ([4]; 30 min every 24 h, CRH 100 nM) of the same compound?
A: The value was “decreases”.

Q: What about the “POMC expression and levels in AtT-20 cells” value ([4]; 72 h of culture) of the same compound?
A: The value was “decreased”.

Q: And the CAT [5]?
A: The CAT was 1.2 ± 0.3 mU/10^6 cells.

Q: What about the G6PDH [5] of the same compound?
A: Its G6PDH is 317 ± 84 mU/10^6 cells.

Q: What about the GCL [5] of the same compound?
A: The GCL was 85 ± 27 mU/10^6 cells.

Q: And the GGT [5]?
A: Its GGT is 27.5 ± 7.4 mU/10^6 cells.

Q: What about the GPX [5] of the same compound?
A: The GPX was 15.0 ± 2.6 mU/10^6 cells.

Q: And the GSH [5]?
A: Its GSH is 10.4 ± 2.0 nmol/10^6 cells.

Q: And the GSH/GSSG [5]?
A: The GSH/GSSG was 35 ± 6.

Q: What about the GSR [5] of the same compound?
A: Its GSR is 5.5 ± 1.2 mU/10^6 cells.

Q: And the GSS [5]?
A: The GSS was 12.4 ± 2.7 mU/10^6 cells.

Q: What about the GSSG [5] of the same compound?
A: The GSSG was 0.3 ± 0.1 nmol/10^6 cells.

Q: What about the GST [5] of the same compound?
A: The GST was 8.0 ± 1.5 mU/10^6 cells.

Q: And the H2O2 [5]?
A: The H2O2 was 1.4 ± 0.3 nmol/10^6 cells × min.

Q: And the IDH [5]?
A: Its IDH is 1.0 ± 0.3 U/10^6 cells.

Q: What about the ME [5] of the same compound?
A: The ME was 55 ± 15 mU/10^6 cells.

Q: What about the NADPH [5] of the same compound?
A: The NADPH was 0.05 ± 0.02 nmol/mg prot.

Q: What about the “NADPH/NADP^+” value [5] of the same compound?
A: Its value is 1.7 ± 0.4.

Q: What about the “NADP^+” value [5] of the same compound?
A: Its value is 0.03 ± 0.01 nmol/mg prot.

Q: And the NOX [5]?
A: Its NOX is 115 ± 33 R.L.U./10^6 cells.

Q: What about the “O2′−” value [5] of the same compound?
A: The value was 8.4 ± 2.4 ΔFL1, a.u.

Q: And the SOD1 [5]?
A: Its SOD1 is 0.2 ± 0.05 U/10^6 cells.

Q: What about the SOD2 [5] of the same compound?
A: Its SOD2 is 0.05 ± 0.02 U/10^6 cells.

Q: And the TXN [5]?
A: Its TXN is 0.3 ± 0.15 μg/10^6 cells.

Q: What about the TXNRD [5] of the same compound?
A: The TXNRD was 0.7 ± 0.2 U/10^6 cells.

Q: And the “NO production (NOx=NO2^− plus NO3^−)” value (A2058 melanoma cells)?
A: Its value is 0.15±0.04 nmol/10^6 cells.

Q: What about the Tumor vol. [6] of the same compound?
A: The Tumor vol. was 375 ± 106* mm^3.
